Assay results: patent publication US5085995A, “Method for producing saffron stigma-like tissue and method for producing useful components from saffron stigma-like tissue” (Somar Corporation, priority 1989, dated 1992)

Key:
[1] = test system: saffron ovary; experiment: Tissue culture of saffron ovary in MS medium with alanine; visual rating of stigma-like tissue (Example 3); type: cell-based; details: BA 10 ppm, 7 weeks, scale 0-10
Description: (§1) The relative amount of the stigma-like tissue was visually determined and rated according to an 11-part divided scale, taking an amount corresponding to the amount of naturally-occurring three stigmata containing saffron pigment as 10, nil as 0, and equally dividing the interval therebetween.
(§2) The relative color density of the stigma-like tissue was visually determined, and rated according to an 11-part divided scale, taking a density corresponding to the density of a naturally-occurring stigma containing saffron pigment as 10 and colorlessness as 0, and equally dividing the interval therebetween.
(§3) Guaran powder was then added to the medium in a concentration of 0.2% by weight. The medium was sterilized at 120° C. for 20 minutes in an autoclave. The sterilized medium was aloquated into sterile plastic plates having a diameter of 55 mm, followed by cooling to solidify.
(§4) A bud of a saffron flower before opening was harvested, sterilized by soaking in a 0.5 vol% sodium hypochlorite aqueous solution for 10 minutes, and washed with water. The ovary portion of the bud was taken out and cut to pieces of about 8 mm. Each cut piece was seeded on each of the above-prepared solid media.
(§5) The ovary was subjected to static culture at 25° C. in a dark room. Production of a stigma-like tissue was recognized in the cultures in about 4 weeks at the soonest. In 7 weeks, the stigma-like tissue grew and assumed a red color, indicating considerable production of the saffron pigment.
(§6) After 7 weeks of culturing, the tissue cultures were visually observed and evaluated in the same manner as in Example 1.

[2] = test system: saffron ovary; experiment: Tissue culture of saffron ovary in Linsmaier-Skoog medium with alanine; visual rating of stigma-like tissue (Example 4); type: cell-based; details: Ki 2 ppm, scale 0-10
Description: as §1, §2, §3, §4, §5, §6
(§7) A saffron ovary was cultured in the same manner as in Example 3, except for replacing the MS medium with a Linsmaier-Skoog medium to which Ki, NAA and alanine were added in the concentrations shown in Table 11.

[3] = test system: corolla tube of a saffron; experiment: Tissue culture of saffron corolla tube with alanine; visual rating of stigma-like tissue (Example 5); type: cell-based; details: Ki 2 ppm, Linsmaier-Skoog medium, scale 0-10
Description: as §1, §2, §3, §4, §6, §7
The procedure of Example 4 was repeated except for replacing the ovary with a corolla tube of a saffron.

[4] = test system: style of saffron; experiment: Tissue culture of saffron style with alanine; visual rating of stigma-like tissue (Example 6); type: cell-based; details: Ki 2 ppm, Linsmaier-Skoog medium, scale 0-10
Description: as §1, §2, §3, §4, §6, §7
The procedure of Example 4 was repeated except for replacing the overy with a style of saffron.

[5] = test system: stigma of saffran; experiment: Tissue culture of saffron stigma with alanine; visual rating of stigma-like tissue (Example 7); type: cell-based; details: Ki 2 ppm, Linsmaier-Skoog medium, scale 0-10
Description: as §1, §2, §3, §4, §6, §7
The procedure of Example 4 was repeated except for replacing the ovary with a stigma of saffran.

[6] = test system: female organ and/or corolla tube of saffron; experiment: Tissue culture of female organ and/or corolla tube of saffron in the presence of alanine; type: cell-based; details: compared with cultures in the absence of alanine
Description: In this embodiment, a female organ and/or a corolla tube of a saffron flower is tissue-cultured in a medium containing a plant hormone and alanine in a bright or dark room.
Female organs and/or corolla tubes to be cultured are harvested from saffron flowers before opening, i.e., flowers in the bud and subjected to tissue culture in the manner as in the first embodiment by using a medium containing alanine to produce and proliferate the stigma-like tissue. When using female organs and/or corolla tubes harvested after flower opening, the amount of the stigma-like tissue produced tends to be reduced.
In cases where female organs and/or corolla tubes are cultured in the second embodiment, the culture medium should further contain alanine to accelerate the production of the stigma-like tissue. Alanine is preferably added to a medium in concentrations of from about 0.005 to 10g/l, more preferably from 0.1 to 10g/l. The alanine to be added may be any of D- or L-optical isomers and a racemate.
Tissue culture according to the present invention can be performed either by static culture using a solid medium or by shake culture using a liquid medium. The solid medium includes a medium containing about 0.8% by weight of agar and a Murashige-Skoog medium containing 0.2% by weight of guaran. The culturing may be in either a bright room or a dark room. […]

[7] = test system: undifferentiated callus of saffron bulb; details: undifferentiated callus culture of saffron bulb; symposium 1987; cited from earlier work

C[C@H](N)C(=O)O (racemic) [Alanine, alanine]
Relative Color Density of Stigma-Like Tissue Containing Saffron Pigment ([1]; alanine 0.005 g/l, NAA 0.1 ppm): 8 | Relative Production of Stigma-Like Tissue Containing Saffron Pigment ([1]; alanine 0.005 g/l, NAA 0.1 ppm): 4 | Relative Color Density of Stigma-Like Tissue Containing Saffron Pigment ([1]; alanine 0.005 g/l, NAA 1.0 ppm): 8 | Relative Production of Stigma-Like Tissue Containing Saffron Pigment ([1]; alanine 0.005 g/l, NAA 1.0 ppm): 4 | Relative Color Density of Stigma-Like Tissue Containing Saffron Pigment ([1]; alanine 0.01 g/l, NAA 0.1 ppm): 8 | Relative Production of Stigma-Like Tissue Containing Saffron Pigment ([1]; alanine 0.01 g/l, NAA 0.1 ppm): 5 | Relative Color Density of Stigma-Like Tissue Containing Saffron Pigment ([1]; alanine 0.01 g/l, NAA 1.0 ppm): 8 | Relative Production of Stigma-Like Tissue Containing Saffron Pigment ([1]; alanine 0.01 g/l, NAA 1.0 ppm): 5 | Relative Color Density of Stigma-Like Tissue Containing Saffron Pigment ([1]; alanine 0.1 g/l, NAA 0.1 ppm): 9 | Relative Production of Stigma-Like Tissue Containing Saffron Pigment ([1]; alanine 0.1 g/l, NAA 0.1 ppm): 5 | Relative Color Density of Stigma-Like Tissue Containing Saffron Pigment ([1]; alanine 0.1 g/l, NAA 1.0 ppm): 9 | Relative Production of Stigma-Like Tissue Containing Saffron Pigment ([1]; alanine 0.1 g/l, NAA 1.0 ppm): 6 | Relative Color Density of Stigma-Like Tissue Containing Saffron Pigment ([1]; alanine 1.0 g/l, NAA 0.1 ppm): 9 | Relative Production of Stigma-Like Tissue Containing Saffron Pigment ([1]; alanine 1.0 g/l, NAA 0.1 ppm): 7 | Relative Color Density of Stigma-Like Tissue Containing Saffron Pigment ([1]; alanine 1.0 g/l, NAA 1.0 ppm): 9 | Relative Production of Stigma-Like Tissue Containing Saffron Pigment ([1]; alanine 1.0 g/l, NAA 1.0 ppm): 8 | Relative Color Density of Stigma-Like Tissue Containing Saffron Pigment ([1]; alanine 5.0 g/l, NAA 0.1 ppm): 9 | Relative Production of Stigma-Like Tissue Containing Saffron Pigment ([1]; alanine 5.0 g/l, NAA 0.1 ppm): 6 | Relative Color Density of Stigma-Like Tissue Containing Saffron Pigment ([1]; alanine 5.0 g/l, NAA 1.0 ppm): 8 | Relative Production of Stigma-Like Tissue Containing Saffron Pigment ([1]; alanine 5.0 g/l, NAA 1.0 ppm): 6 | Relative Color Density of Stigma-Like Tissue Containing Saffron Pigment ([1]; alanine 10.0 g/l, NAA 0.1 ppm): 8 | Relative Production of Stigma-Like Tissue Containing Saffron Pigment ([1]; alanine 10.0 g/l, NAA 0.1 ppm): 5 | Relative Color Density of Stigma-Like Tissue Containing Saffron Pigment ([1]; alanine 10.0 g/l, NAA 1.0 ppm): 8 | Relative Production of Stigma-Like Tissue Containing Saffron Pigment ([1]; alanine 10.0 g/l, NAA 1.0 ppm): 5 | Relative Color Density of Stigma-Like Tissue Containing Saffron Pigment ([1]; alanine 20.0 g/l, NAA 0.1 ppm): 8 | Relative Production of Stigma-Like Tissue Containing Saffron Pigment ([1]; alanine 20.0 g/l, NAA 0.1 ppm): 3 | Relative Color Density of Stigma-Like Tissue Containing Saffron Pigment ([1]; alanine 20.0 g/l, NAA 1.0 ppm): 7 | Relative Production of Stigma-Like Tissue Containing Saffron Pigment ([1]; alanine 20.0 g/l, NAA 1.0 ppm): 4 | Relative Color Density of Stigma-Like Tissue Containing Saffron Pigment ([2]; alanine 0.01 g/l, NAA 0.1 ppm): 5 | Relative Production of Stigma-Like Tissue Containing Saffron Pigment ([2]; alanine 0.01 g/l, NAA 0.1 ppm): 3 | Relative Color Density of Stigma-Like Tissue Containing Saffron Pigment ([2]; alanine 0.01 g/l, NAA 1.0 ppm): 6 | Relative Production of Stigma-Like Tissue Containing Saffron Pigment ([2]; alanine 0.01 g/l, NAA 1.0 ppm): 3 | Relative Color Density of Stigma-Like Tissue Containing Saffron Pigment ([2]; alanine 0.1 g/l, NAA 0.1 ppm): 6 | Relative Production of Stigma-Like Tissue Containing Saffron Pigment ([2]; alanine 0.1 g/l, NAA 0.1 ppm): 4 | Relative Color Density of Stigma-Like Tissue Containing Saffron Pigment ([2]; alanine 0.1 g/l, NAA 1.0 ppm): 6 | Relative Production of Stigma-Like Tissue Containing Saffron Pigment ([2]; alanine 0.1 g/l, NAA 1.0 ppm): 4 | Relative Color Density of Stigma-Like Tissue Containing Saffron Pigment ([2]; alanine 1.0 g/l, NAA 0.1 ppm): 7 | Relative Production of Stigma-Like Tissue Containing Saffron Pigment ([2]; alanine 1.0 g/l, NAA 0.1 ppm): 5 | Relative Color Density of Stigma-Like Tissue Containing Saffron Pigment ([2]; alanine 1.0 g/l, NAA 1.0 ppm): 7 | Relative Production of Stigma-Like Tissue Containing Saffron Pigment ([2]; alanine 1.0 g/l, NAA 1.0 ppm): 5 | Relative Color Density of Stigma-Like Tissue Containing Saffron Pigment ([2]; alanine 5.0 g/l, NAA 0.1 ppm): 6 | Relative Production of Stigma-Like Tissue Containing Saffron Pigment ([2]; alanine 5.0 g/l, NAA 0.1 ppm): 5 | Relative Color Density of Stigma-Like Tissue Containing Saffron Pigment ([2]; alanine 5.0 g/l, NAA 1.0 ppm): 7 | Relative Production of Stigma-Like Tissue Containing Saffron Pigment ([2]; alanine 5.0 g/l, NAA 1.0 ppm): 5 | Relative Color Density of Stigma-Like Tissue Containing Saffron Pigment ([3]; alanine 0.01 g/l, NAA 0.1 ppm): 6 | Relative Production of Stigma-Like Tissue Containing Saffron Pigment ([3]; alanine 0.01 g/l, NAA 0.1 ppm): 4 | Relative Color Density of Stigma-Like Tissue Containing Saffron Pigment ([3]; alanine 0.01 g/l, NAA 1.0 ppm): 6 | Relative Production of Stigma-Like Tissue Containing Saffron Pigment ([3]; alanine 0.01 g/l, NAA 1.0 ppm): 4 | Relative Color Density of Stigma-Like Tissue Containing Saffron Pigment ([3]; alanine 0.1 g/l, NAA 0.1 ppm): 7 | Relative Production of Stigma-Like Tissue Containing Saffron Pigment ([3]; alanine 0.1 g/l, NAA 0.1 ppm): 5 | Relative Color Density of Stigma-Like Tissue Containing Saffron Pigment ([3]; alanine 0.1 g/l, NAA 1.0 ppm): 7 | Relative Production of Stigma-Like Tissue Containing Saffron Pigment ([3]; alanine 0.1 g/l, NAA 1.0 ppm): 5 | Relative Color Density of Stigma-Like Tissue Containing Saffron Pigment ([3]; alanine 1.0 g/l, NAA 0.1 ppm): 7 | Relative Production of Stigma-Like Tissue Containing Saffron Pigment ([3]; alanine 1.0 g/l, NAA 0.1 ppm): 6 | Relative Color Density of Stigma-Like Tissue Containing Saffron Pigment ([3]; alanine 1.0 g/l, NAA 1.0 ppm): 7 | Relative Production of Stigma-Like Tissue Containing Saffron Pigment ([3]; alanine 1.0 g/l, NAA 1.0 ppm): 6 | Relative Color Density of Stigma-Like Tissue Containing Saffron Pigment ([3]; alanine 5.0 g/l, NAA 0.1 ppm): 7 | Relative Production of Stigma-Like Tissue Containing Saffron Pigment ([3]; alanine 5.0 g/l, NAA 0.1 ppm): 6 | Relative Color Density of Stigma-Like Tissue Containing Saffron Pigment ([3]; alanine 5.0 g/l, NAA 1.0 ppm): 7 | Relative Production of Stigma-Like Tissue Containing Saffron Pigment ([3]; alanine 5.0 g/l, NAA 1.0 ppm): 6 | Relative Density of Stigma-Like Tissue Containing Saffron Pigment ([4]; alanine 0.1 g/l, NAA 0.1 ppm): 6 | Relative Production of Stigma-Like Tissue Containing Saffron Pigment ([4]; alanine 0.1 g/l, NAA 0.1 ppm): 4 | Relative Density of Stigma-Like Tissue Containing Saffron Pigment ([4]; alanine 0.1 g/l, NAA 1.0 ppm): 7 | Relative Production of Stigma-Like Tissue Containing Saffron Pigment ([4]; alanine 0.1 g/l, NAA 1.0 ppm): 5 | Relative Density of Stigma-Like Tissue Containing Saffron Pigment ([4]; alanine 1.0 g/l, NAA 0.1 ppm): 7 | Relative Production of Stigma-Like Tissue Containing Saffron Pigment ([4]; alanine 1.0 g/l, NAA 0.1 ppm): 5 | Relative Density of Stigma-Like Tissue Containing Saffron Pigment ([4]; alanine 1.0 g/l, NAA 1.0 ppm): 7 | Relative Production of Stigma-Like Tissue Containing Saffron Pigment ([4]; alanine 1.0 g/l, NAA 1.0 ppm): 6 | Relative Density of Stigma-Like Tissue Containing Saffron Pigment ([4]; alanine 5.0 g/l, NAA 0.1 ppm): 7 | Relative Production of Stigma-Like Tissue Containing Saffron Pigment ([4]; alanine 5.0 g/l, NAA 0.1 ppm): 5 | Relative Density of Stigma-Like Tissue Containing Saffron Pigment ([4]; alanine 5.0 g/l, NAA 1.0 ppm): 8 | Relative Production of Stigma-Like Tissue Containing Saffron Pigment ([4]; alanine 5.0 g/l, NAA 1.0 ppm): 6 | Relative Color Density of Stigma-Like Tissue Containing Saffron Pigment ([5]; alanine 0.1 g/l, NAA 0.1 ppm): 6 | Relative Production of Stigma-Like Tissue Containing Saffron Pigment ([5]; alanine 0.1 g/l, NAA 0.1 ppm): 3 | Relative Color Density of Stigma-Like Tissue Containing Saffron Pigment ([5]; alanine 0.1 g/l, NAA 1.0 ppm): 8 | Relative Production of Stigma-Like Tissue Containing Saffron Pigment ([5]; alanine 0.1 g/l, NAA 1.0 ppm): 4 | Relative Color Density of Stigma-Like Tissue Containing Saffron Pigment ([5]; alanine 1.0 g/l, NAA 0.1 ppm): 8 | Relative Production of Stigma-Like Tissue Containing Saffron Pigment ([5]; alanine 1.0 g/l, NAA 0.1 ppm): 4 | Relative Color Density of Stigma-Like Tissue Containing Saffron Pigment ([5]; alanine 1.0 g/l, NAA 1.0 ppm): 8 | Relative Production of Stigma-Like Tissue Containing Saffron Pigment ([5]; alanine 1.0 g/l, NAA 1.0 ppm): 4 | Relative Color Density of Stigma-Like Tissue Containing Saffron Pigment ([5]; alanine 5.0 g/l, NAA 0.1 ppm): 7 | Relative Production of Stigma-Like Tissue Containing Saffron Pigment ([5]; alanine 5.0 g/l, NAA 0.1 ppm): 4 | Relative Color Density of Stigma-Like Tissue Containing Saffron Pigment ([5]; alanine 5.0 g/l, NAA 1.0 ppm): 7 | Relative Production of Stigma-Like Tissue Containing Saffron Pigment ([5]; alanine 5.0 g/l, NAA 1.0 ppm): 4 | quantities of stigma-like tissue and the pigment [6]: larger quantities of stigma-like tissue and the pigment | effect of addition of alanine to the medium [7]: discharge of a red substance into the medium
